For 16 compounds, IC50 results are on record in patent US7294635B2 (Portola Pharmaceuticals, Inc., priority 2003, dated 2007).

Molecules are shown by their SMILES.

The assay deals with ADP-induced human platelet aggregation. Kind of assay: Inhibition of ADP-mediated platelet aggregation in vitro using platelet-rich plasma (PRP assay). The following applies: 5 min; human platelet-rich plasma, 2 μM ADP, 96-well microtiter, OD 650 nm at 5 min; read-out: Activity in the PRP assay. The assay is classed as cell-based. The procedure: This Example Provides an Assay for the Inhibition of ADP-Mediated Platelet Aggregation In Vitro Using Platelet-Rich Plasma (PRP)
Platelet-rich plasma (PRP) is prepared by centrifugation at 160×g for 20 minutes at room temperature. PRP is collected, and the platelet concentration is determined using a Coulter counter or hemocytometer (platelet concentration should be 2-4×10^8 platelets per mL).
Inhibition of ADP-dependent aggregation is preferably determined in 96-well flat-bottom microtiter plates using a microtiter plate shaker and plate reader similar to the procedure described by Frantantoni et al., Am. J. Clin. Pathol. […] All steps are performed at room temperature. The total reaction volume of 0.2 mL/well includes: PRP (˜6×10^7 total platelets in the presence of plasma), serial dilutions of test compounds (buffer for control wells) in 0.6% DMSO. After about 5 minutes preincubation at room temperature, ADP is added to a final concentration of 2 μM which induces submaximal aggregation. Buffer is added instead of ADP to one set of control wells (ADP-control). The OD of the samples is then determined at 650 nm using a microtiter plate reader (Softmax, Molecular Devices, Menlo Park, Calif.) resulting in the 0 minute reading. The plates are then agitated for 5 min on a microtiter plate shaker and the 5 minute reading is obtained in the plate reader. Aggregation is calculated from the decrease of OD at 650 nm at t=5 minutes compared to t=0 minutes and is expressed as % of the decrease in the ADP control samples after correcting for changes in the unaggregated control samples.
On to `CNc1cc2ccn(-c3ccc(NC(=O)NS(=O)(=O)c4ccc(Cl)s4)c(OCCOC)c3)c(=O)c2cc1F` [Example 91, 5-chloro-N-({[4-[7-fluoro-6-(methylamino)-1-oxoisoquinolin-2(1H)-yl]-2-(2-methoxyethoxy)phenyl]amino}carbonyl)thiophene-2-sulfonamide], for which the IC50 is below 10 µM.
Under `CNc1cc2ccn(-c3ccc(NC(=O)NS(=O)(=O)c4ccc(Cl)s4)c(C(C)C)c3)c(=O)c2cc1F` [Example 92, 5-chloro-N-[({4-[7-fluoro-6-(methylamino)-1-oxoisoquinolin-2(1H)-yl]-2-isopropylphenyl}amino)carbonyl]thiophene-2-sulfonamide] stands 10 to 30 µM; under `CNc1cc2ccn(-c3ccc(NC(=O)NS(=O)(=O)c4ccc(Cl)s4)c(OCCN(C)C)c3)c(=O)c2cc1F` [Example 93, 5-chloro-N-[({2-[2-(dimethylamino)ethoxy]-4-[7-fluoro-6-(methylamino)-1-oxoisoquinolin-2(1H)-yl]phenyl}amino)carbonyl]thiophene-2-sulfonamide], below 10 µM; under `CNc1cc2ccn(-c3ccc(NC(=O)NS(=O)(=O)c4ccc(Cl)s4)c(C4CC4)c3)c(=O)c2cc1F` [Example 94, 5-chloro-N-[({2-cyclopropyl-4-[7-fluoro-6-(methylamino)-1-oxoisoquinolin-2(1H)-yl]phenyl}amino)carbonyl]thiophene-2-sulfonamide], below 10 µM.
Under `CNc1cc2ccn(-c3ccc(NC(=O)NS(=O)(=O)c4ccc(Cl)s4)cc3C(F)(F)F)c(=O)c2cc1F` [Example 95, 5-chloro-N-({[4-[7-fluoro-6-(methylamino)-1-oxoisoquinolin-2(1H)-yl]-3-(trifluoromethyl)phenyl]amino}carbonyl)thiophene-2-sulfonamide] stands above 30 µM; under `CNc1cc2ccn(-c3cc(C)c(NC(=O)NS(=O)(=O)c4ccc(Cl)s4)c(C)c3)c(=O)c2cc1F` [Example 96, 5-chloro-N-[({4-[7-fluoro-6-(methylamino)-1-oxoisoquinolin-2(1H)-yl]-2,6-dimethylphenyl}amino)carbonyl]thiophene-2-sulfonamide], below 10 µM; under `CNc1cc2ccn(-c3ccc(NC(=O)NS(=O)(=O)c4ccc(Cl)s4)c(C(F)(F)F)c3)c(=O)c2cc1F` [Example 97, 5-chloro-N-({[4-[7-fluoro-6-(methylamino)-1-oxoisoquinolin-2(1H)-yl]-2-(trifluoromethyl)phenyl]amino}carbonyl)thiophene-2-sulfonamide], below 10 µM.
Turning to `CNc1cc2ccn(-c3ccc(NC(=O)NS(=O)(=O)c4ccc(Cl)s4)c(C(=O)OC)c3)c(=O)c2cc1F` [Example 98, methyl 2-[({[(5-chlorothien-2-yl)sulfonyl]amino}carbonyl)amino]-5-[7-fluoro-6-(methylamino)-1-oxoisoquinolin-2(1H)-yl]benzoate], the IC50 was below 10 µM.
Consider `CNc1cc2ccn(-c3ccc(NC(=O)NS(=O)(=O)c4ccc(Cl)s4)c(C(=O)O)c3)c(=O)c2cc1F` [Example 99, 2-[({[(5-chlorothien-2-yl)sulfonyl]amino}carbonyl)amino]-5-[7-fluoro-6-(methylamino)-1-oxoisoquinolin-2(1H)-yl]benzoic acid], for which the IC50 is below 10 µM.
Under `CNc1cc2ccn(-c3cc(C)c(NC(=O)NS(=O)(=O)c4ccc(Cl)s4)c(C(C)C)c3)c(=O)c2cc1F` [Example 100, 5-chloro-N-[({4-[7-fluoro-6-(methylamino)-1-oxoisoquinolin-2(1H)-yl]-2-isopropyl-6-methylphenyl}amino)carbonyl]thiophene-2-sulfonamide] stands 10 to 30 µM.
Consider `CNc1cc2ccn(-c3cc(C)c(NC(=O)NS(=O)(=O)c4ccc(Cl)s4)c(C(=O)OC)c3)c(=O)c2cc1F` [Example 101, methyl 2-[({[(5-chlorothien-2-yl)sulfonyl]amino}carbonyl)amino]-5-[7-fluoro-6-(methylamino)-1-oxoisoquinolin-2(1H)-yl]-3-methylbenzoate], for which the IC50 was below 10 µM.
Under `CNc1cc2ccn(-c3ccc(NC(=O)NS(=O)(=O)c4ccc(Cl)s4)c(S(C)(=O)=O)c3)c(=O)c2cc1F` [Example 102, 5-chloro-N-({[4-[7-fluoro-6-(methylamino)-1-oxoisoquinolin-2(1H)-yl]-2-(methylsulfonyl)phenyl]amino}carbonyl)thiophene-2-sulfonamide] stands above 30 µM.
With `CNc1cc2ccn(-c3ccc(NC(=O)NS(=O)(=O)c4ccc(Cl)s4)c(Cl)c3)c(=O)c2cc1F` [Example 103, 5-chloro-N-[({2-chloro-4-[7-fluoro-6-(methylamino)-1-oxoisoquinolin-2(1H)-yl]phenyl}amino)carbonyl]thiophene-2-sulfonamide], the IC50 was below 10 µM.
For `CNc1c(F)cc2c(=O)n(-c3ccc(NC(=O)NS(=O)(=O)c4ccc(Cl)s4)cc3)ccc2c1Br` [Example 109, N-[({4-[5-bromo-7-fluoro-6-(methylamino)-1-oxoisoquinolin-2(1H)-yl]phenyl}amino)carbonyl]-5-chlorothiophene-2-sulfonamide], the IC50 was above 30 µM.
Next, `CNc1c(F)cc2c(=O)n(-c3ccc(NC(=O)NS(=O)(=O)c4ccc(Cl)s4)cc3)ccc2c1C#N` [Example 118, 5-chloro-N-[({4-[5-cyano-7-fluoro-6-(methylamino)-1-oxoisoquinolin-2(1H)-yl]phenyl}amino)carbonyl]thiophene-2-sulfonamide]: 10 to 30 µM.
For `CNc1c(F)cc2c(=O)n(-c3ccc(NC(=O)NS(=O)(=O)c4ccc(Cl)s4)cc3)ccc2c1C` [Example 120, 5-chloro-N-[({4-[7-fluoro-5-methyl-6-(methylamino)-1-oxoisoquinolin-2(1H)-yl]phenyl}amino)carbonyl]thiophene-2-sulfonamide], the IC50 is below 10 µM.
